US20100069319A1, “Mercaptopurine derivatives and uses thereof” (priority 2007, published 2010)
Blank lines part the entries; values can stand above or below the molecule they belong to.

What was measured:
[1] = test system: Hela cells; test: [3H] thymidine incorporation into DNA (cell proliferation); format: cell-based, human; conditions: 16 h
Description: (§1) The effects of 6-MP derivatives on DNA synthesis were assessed by [Methyl-^3H] thymidine incorporation into DNA. All the experiments performed with cells were carried out at least in triplicates. Adhesive cells (N87, Hela HtTA-1 and MDR HT-29) were seeded at 10,000 cells/well (96-well plate) or 60,000 cells/well (24-well plate). Cells in suspension (B-CLL, Daudi, HL-60, Jurkat, MOLT4 and U937cells) were seeded at 15,000 cells/well (96-wells plate) or 100,000 cells/well (24-wells plate). Adhesive cells were grown at 37° C. for 6 h after seeding, before treatment. For the assessment of [Methyl-^3H] thymidine incorporation, cells were treated with various concentrations of 6-MP derivatives at 37° C. for 16 h in the presence of [Methyl-^3H] thymidine (0.8-1.0 μCi/well). Then, plates were frozen (−20° C., 1 h). Adhesive cells were trypsinized before harvesting. Cells in suspension were directly harvested after thawing out the frozen cells.
(§2) The antiproliferative effect of 6-MP and SA-6MP on various cell lines was assessed by determining [^3H] thymidine incorporation into the DNA. 6-MP and SA-6MP at 0-200 μM were applied to Daudi, Hela and N87 cells cultured in 96-well plates in the presence of [^3H] thymidine, as described in Materials and Methods. […] As further shown, the sensitivity to the prodrug is cell type dependent.

[2] = test system: N87 cells; test: as above; format: cell-based, human; conditions: 16 h
Description: as §1, §2

[3] = test system: B-CLL cells; test: Cell death by trypan blue dye exclusion / PI; format: cell-based, human; conditions: 16 h
Description: (§3) Cell death was monitored by trypan blue dye exclusion test or propidium iodide (PI) incorporation. Treated cells were incubated with PI (2 μg/ml) for 20 min at 37° C., washed with HBS and examined by fluorescence microscopy or analyzed by flow cytometry using fluorescence-activated cell sorting (Becton Dickinson FACScan Instrument using CellQuest software (BD Bioscience, San Jose, Calif.). Monolayer cells were trypsinized and washed with HBS before FACS analysis.
(§4) In parallel, the trypan blue dye exclusion test was used to assess cell death. In particular, different concentrations of 6MP and SA-6MP were applied to various cell cultures (Daudi and Hela cells, each at 30,000 cells/well) as described in Materials and Methods. The cells were stained with trypan blue to monitor the lethal effect of several concentrations of the tested conjugates as the percentage of dead cells. As shown in FIG. 3A-3D, cell death induced by 6-MP and SA-6MP was both concentration and cell type dependent. […] SA-6MP at concentrations higher than 150 μM reduced the residual viability to 75% (FIG. 3D).

[4] = test system: Hela cells; test: Cell death by trypan blue dye exclusion / PI; format: cell-based, human; conditions: 16 h; for sensitivity to treatment (cell death, words): 100 μM
Description: as §3, §4

[5] = test system: MDR HT-29 cells; test: Cell death by trypan blue dye exclusion / PI; format: cell-based, human; conditions: 16 h; for sensitivity to treatment (cell death, words): MDR HT-29, 100 μM
Description: as §3, §4

[6] = test system: Daudi cells; test: Cell death by trypan blue dye exclusion / PI; format: cell-based; conditions: 16 h
Description: as §3, §4

[7] = test system: N87 cells; test: XTT cell proliferation assay; format: cell-based, human; conditions: 16 h
Description: (§5) Cell proliferation was determined by the XTT viability assay in 96-well plates, based on the reduction of tetrazolium salt to soluble formazan compounds by living cells. Cells (10,000-15,000 cells/well) were seeded in a 96-well plate. After 16 h incubation with various concentrations of 6-MP, 6-MPR and their S-allylthio-derivatives, 50 μl of XTT/PMS mixture (50 μM PMS, 0.1% XTT in medium) was added onto the cells. After an incubation period of 3-4 h at 37° C. the absorbance of the samples was measured in an ELISA Reader at 450 nm. SDS (1%, 10 μl/well) was added to reference wells before adding the XTT/PMS solution.
The inhibitory effects of the various prodrugs on Daudi leukemia cell and on monolayer N87 cells were compared. […] XTT was added to the wells for 3 h at 37° C. Cell viability was monitored using an ELISA reader at 450 nm, as described in Materials and Methods.

[8] = test system: HL-60; test: Anti-proliferative concentration IC50 (Table 2); format: cell-based, human; conditions: Homo sapiens; HL-60, 16 h, tested at 0-100 μM; read-out: Anti-proferative concentration - IC50 (mean ± SE)
Description: as §5
(§6) The results of viability and proliferation were expressed as mean values±SD (n=3-6). For each cell line, the results were analyzed using two-way analysis of variance (ANOVA) followed by Bonferroni's posttest for the factors of the drugs used and their various concentrations, considering p<0.05 as significant. IC50 values (mean±SEM) were obtained from the linear range of the viability curve versus drug concentration (XTT assay).
(§7) In particular, cell in suspension, namely, Daudi, HL-60, U937, Molt-4, Jurkat and B-CLL, were tested at prodrug concentration of 0-100 μM, and monolayer cells, namely, Hela HtTA-1, MDR HT-29 and N87, were tested at prodrug concentration of 0-200 μM. in both cases, cell viability was determined by trypan blue dye exclusion assay. Data are presented in Table 2 hereinbelow for 6MP derivatives-treated for 16 h.

[9] = test system: Hela; test: Anti-proliferative concentration IC50 (Table 2); format: cell-based, human; conditions: Homo sapiens, 16 h, tested at 0-200 μM, read-out: Anti-proferative concentration - IC50 (mean ± SE)
Description: as §5, §6, §7

[10] = test system: Jurkat; test: Anti-proliferative concentration IC50 (Table 2); format: cell-based, human; conditions: Homo sapiens, 16 h, tested at 0-100 μM, read-out: Anti-proferative concentration - IC50 (mean ± SE)
Description: as §5, §6, §7

[11] = test system: MDR HT-29; test: Anti-proliferative concentration IC50 (Table 2); format: cell-based, human; conditions: Homo sapiens; MDR HT-29, 16 h, tested at 0-200 μM; read-out: Anti-proferative concentration - IC50 (mean ± SE)
Description: as §5, §6, §7

[12] = test system: U937; test: Anti-proliferative concentration IC50 (Table 2); format: cell-based, human; conditions: Homo sapiens, U-937; U937, 16 h, tested at 0-100 μM; read-out: Anti-proferative concentration - IC50 (mean ± SE)
Description: as §5, §6, §7

[13] = test system: human peripheral blood mononuclear cells (PBMCs); conditions: after 4 days of treatment, read-out: IC50, T-cell mitogen-induced blastogenesis; cited from earlier work
[14] = Homo sapiens, [3H] thymidine incorporation, read-out: concentration at which 50% inhibition was observed
[15] = at the same concentrations (0-200 μM)

- IC50 [1, 14]: 110 µM
- IC50 [8]: 42 ± 3.8 µM
- IC50 [9]: 114 ± 12 µM
- IC50 [10]: 54.7 ± 6.3 µM
- IC50 [11]: 126 ± 19.1 µM
- IC50 [12]: 46.7 ± 4.8 µM
Structure (SMILES): C=CCSSc1ncnc2nc[nH]c12 [SA-6MP, S-allylthio-6-mercaptopurine]
- IC50 [2, 14]: 100 µM
- residual viability ([3]; concentrations higher than 150 μM): 75%
- sensitivity to treatment (cell death, words) [4]: almost non-sensitive
- viability at 150 µM ([4]; Homo sapiens, 150 μM, read-out: viability compared to non-treated cells): 65%
- viability at 150 µM ([5]; Homo sapiens, MDR HT-29, 150 μM, read-out: viability compared to non-treated cells): 40%
- sensitivity to treatment (cell death, words) [5]: almost non-sensitive
- viability at 50 µM ([6]; Homo sapiens, 50 μM, read-out: residual viability): ~20%
- viability at 50 µM ([7]; Homo sapiens, N87, 50 μM, read-out: residual proliferation / viability): 50 to 60%

- IC50 [9]: > 200 µM
- IC50 [10]: > 200 µM
- IC50 [11]: > 200 µM
- IC50 [12]: > 200 µM
Structure (SMILES): Sc1ncnc2nc[nH]c12 [6-MP, 6-Mercaptopurine, reference compound]
- inhibition of proliferation [1, 15]: no inhibition of proliferation
- inhibition of proliferation [2, 15]: no inhibition of proliferation
- sensitivity to treatment ([3]; 100-200 μM): almost insensitive
- sensitivity to treatment (cell death, words) [4]: almost non-sensitive
- viability at 200 µM ([4]; Homo sapiens, 200 μM): 75%
- sensitivity to treatment (cell death, words) [5]: almost non-sensitive
- effect on cell viability ([6]; concentrations higher than 100 μM): no significant effect on cell viability
- cell proliferation ([7]; N87, 0-100 μM): no significant loss of cell proliferation
- proliferation (residual) ([7]; N87, 150 μM): ~80%
- IC50 [13]: 0.149 ± 0.125 µM
